We go through 9 molecules from patent US8314103B2, “Pyridyl derivatives, their preparation and use” (Piramal Enterprises Limited, priority 2007, dated 2012).

One series can be described thus: Cytotoxicity assay (MTS). The format is cell-based. The note with it: human, panel of HIF over expressing cell lines, average across a panel of HIF overexpressing cell lines, read-out: Cytotoxic Potential (MTS/PI), average IC50. On the procedure:
Cytotoxicity and Anti-proliferative Assay
Cytotoxic potential of compounds of the present invention was tested using various HIF over expressing cell lines (source and culture conditions as described in Table-1 herein above). Cells were seeded at a density of 3000-5000 cells per well in 180 μL volume in transparent 96 well tissue culture plate (NUNC, USA) and incubated for 12-18 hours at 37° C., 5% CO2. Subsequently, 20 μL of compounds of present invention (diluted in medium at concentrations ranging from 30 μM, 10 μM, 3 μM, 1 μM, 0.3 μM or 0.1 μM) were added to each well. Cells were then incubated for 48 hours at 37° C., 5% CO2. Following the incubation, 20 μL of MTS solution with PMS (Promega) was added in each well. After 4 hours incubation, the absorbance of the fluid in each well was determined at 490 nm using a microwell plate spectrophotometer reader (Molecular Devices, Sunnyvale, Calif., USA). In every experiment, each condition was run in triplicate wells.

A further series deals with HIF-1α. Kind of series: HIF-1α assay (luciferase reporter gene, U251 HRE / U251 pGL3 cells). The format is cell-based, human. The note with it: SI greater than 4 indicates specificity towards HIF-1α inhibition under hypoxia conditions.
In series [1] the test system is HIF overexpressing cell lines. Kind of series: Anti-proliferative assay (3H-Thymidine incorporation). The format is cell-based. The conditions noted are these: Homo sapiens; average across a panel of HIF overexpressing cell lines; 48 hours; read-out: Anti Proliferative Potential (3H-Thymidine), average IC50. On the procedure: The anti-proliferative potential of compounds of present invention across a panel of cancer cell lines as described herein above was determined using ^3H-Thymidine incorporation. […] Cells were seeded at a density of 3000-5000 cells per well in 180 μL volume in transparent 96 well tissue culture plate (NUNC, USA) and incubated for 12-18 hours at 37° C., 5% CO2. Subsequently, 20 μL of compounds of present invention (diluted in medium at concentrations ranging from 30 μM, 10 μM, 3 μM, 1 μM, 0.3 μM or 0.1 μM) were added to each well. Cells were then incubated for 48 hours at 37° C., 5% CO2 After the incubation, all the medium from the plates was aspirated and ^3H-Thymidine was added to all wells at a concentration of 0.25 μCi/well in 200 μL it complete medium (RPMI with 10% FBS). Plates were incubated at 37° C., 5% CO2 for further 6-14 hours. Following this incubation period, cells from 96 well plates were harvested with the help of cell harvester (Packard, USA) on a 96 well glass-filter plate (Unifilter-96, GF/B, Packard, USA). The filter plates were dried completely at 60° C. for 1 hour or overnight at room temperature. After drying, the bottom of the plates was sealed with bottom seals and 0.05 mL/well of scintillate fluid was added per well (Microscint-O, Packard). The plates were sealed from the top, read on Scintillation counter (TopCount, Packard) and percent inhibition and IC50 were calculated.
Background: Uptake of a labelled nucleoside into DNA is a usual measure of proliferation.

The next series concerns the target T1, mTOR (Homo sapiens, UniProt P42345).
T1 construct: endogenous in cells
The series can be described thus: Cell based mTOR assay. The conditions noted are these: IGF-I induced AKT/p70S6K1 phosphorylation; read-out: Inhibition of mTOR (cell-based): IC50. On the procedure:
The mTOR assay was designed as given in Biochem J., 2000, 350, 717-722 with modifications as described below.
Cells were seeded in a 96 well microtitre plate at a density of 50,000 cells/cm^2 in appropriate complete cell culture medium. The cells were allowed to adhere for 18-24 hours. The cells were pretreated (in triplicates) with the test compound at a concentration of 10 μM for 30 minutes followed by induction with 400 ng/ml IGF-I for 24 hours (to induce AKT and p70S6K1 phosphorylation). A typical assay would consist of a set of unstimulated well, a set of stimulated and a set each of wells treated with compound and the stimulator. The medium was discarded. The cells were fixed with 100 μl of 3.7% formaldehyde for 15 minutes. The formaldehyde was discarded by inverting the plate and tapping it on a thick tissue paper layer to remove traces. The cells were washed and permeabilized with 200 μL PBS-Triton solution (containing 0.1% triton-X 100 in 1× PBS) three times, incubating the cells each time for 5 minutes. 100 μL blocking solution (10% FCS in PBS-Triton) was added and incubated for 1 hour at room temperature. The blocking solution was discarded and cells were incubated with the primary antibody in PBS-Triton at a dilution of 1:500 for 1 hour at room temperature. [The primary antibody is Phospho-AKT (Ser 473); Cell Signaling; Cat. No. 9271; Phospho p70S6K1 (Thr 389), Cell Signaling, Cat. No. 9205]. The primary antibody solution was discarded and the cells were washed 3 times with PBS-Triton solution and incubated with the HRP-conjugated secondary antibody in PBS-Triton at a dilution of 1:500 for 1 hour at room temperature. The cells were washed 3 times with PBS-Triton followed by two washes with PBS (to remove traces of triton-X 100). The OPD (o-phenylene diamine dihydrochloride) substrate was prepared for detection of the signal by dissolving one tablet set (two tablets) of SigmaFast OPD (Sigma, Cat No. P9187) in 20 mL distilled water, and was protected from light. 100 μL OPD solution was added to the wells and the plate was incubated in the dark for 3-5 minutes (depending upon the development of the colour). The reaction was stopped by adding 50 μL 2 N sulphuric acid (H2SO4). The absorbance was measured at 490 nm. The values were expressed in the treated samples, in terms of percentage or fold decrease in AKT/p70 phosphorylation with respect to the induced sample.

The next series concerns the target PI3Kα kinase (Homo sapiens, UniProt P42336). Kind of series: PI3Kα kinase assay. The note with it: 10 μM ATP; read-out: Inhibition of PI3Kα (kinase): IC50. The format is biochemical. As for the experimental part:
The PI3K kinase assay was designed as given in Cell, 2006, 125, 733-747.
The kinase reaction was carried out in a 25 μL reaction in a 1.5 ml microcentrifuge tube. The reaction mixture consisted of kinase buffer (10 mM Hepes, pH 7.5, 50 mM MgCl2), 20 ng PI3Kα kinase, 12.5 μg phosphotidylinositol (PI), 10 μM adenosine triphosphate (ATP) and 1 μCi 32γP […]. The compounds of the present invention were added at appropriate concentrations. The reactions were incubated at 30° C. for 20 minutes and were stopped by adding 1:1 mixture of methanol and chloroform. The tube contents were mixed on a vortex mixer and centrifuged at 10000 rpm for 2 minutes. 10 μL of the organic (lower) phase was spotted on to a thin layer chromatography (TLC) plate. The spots were resolved in a mobile phase consisting of a 65:35 mixture of n-propanol and 2 M glacial acetic acid. The plates were dried and exposed to an X-ray film. The bands appearing as a result of 32 g P incorporation in PI were quantitated using the QuantityOne (BioRad) densitometry program.

Chain of PI3Kα kinase (P42336 whole entry): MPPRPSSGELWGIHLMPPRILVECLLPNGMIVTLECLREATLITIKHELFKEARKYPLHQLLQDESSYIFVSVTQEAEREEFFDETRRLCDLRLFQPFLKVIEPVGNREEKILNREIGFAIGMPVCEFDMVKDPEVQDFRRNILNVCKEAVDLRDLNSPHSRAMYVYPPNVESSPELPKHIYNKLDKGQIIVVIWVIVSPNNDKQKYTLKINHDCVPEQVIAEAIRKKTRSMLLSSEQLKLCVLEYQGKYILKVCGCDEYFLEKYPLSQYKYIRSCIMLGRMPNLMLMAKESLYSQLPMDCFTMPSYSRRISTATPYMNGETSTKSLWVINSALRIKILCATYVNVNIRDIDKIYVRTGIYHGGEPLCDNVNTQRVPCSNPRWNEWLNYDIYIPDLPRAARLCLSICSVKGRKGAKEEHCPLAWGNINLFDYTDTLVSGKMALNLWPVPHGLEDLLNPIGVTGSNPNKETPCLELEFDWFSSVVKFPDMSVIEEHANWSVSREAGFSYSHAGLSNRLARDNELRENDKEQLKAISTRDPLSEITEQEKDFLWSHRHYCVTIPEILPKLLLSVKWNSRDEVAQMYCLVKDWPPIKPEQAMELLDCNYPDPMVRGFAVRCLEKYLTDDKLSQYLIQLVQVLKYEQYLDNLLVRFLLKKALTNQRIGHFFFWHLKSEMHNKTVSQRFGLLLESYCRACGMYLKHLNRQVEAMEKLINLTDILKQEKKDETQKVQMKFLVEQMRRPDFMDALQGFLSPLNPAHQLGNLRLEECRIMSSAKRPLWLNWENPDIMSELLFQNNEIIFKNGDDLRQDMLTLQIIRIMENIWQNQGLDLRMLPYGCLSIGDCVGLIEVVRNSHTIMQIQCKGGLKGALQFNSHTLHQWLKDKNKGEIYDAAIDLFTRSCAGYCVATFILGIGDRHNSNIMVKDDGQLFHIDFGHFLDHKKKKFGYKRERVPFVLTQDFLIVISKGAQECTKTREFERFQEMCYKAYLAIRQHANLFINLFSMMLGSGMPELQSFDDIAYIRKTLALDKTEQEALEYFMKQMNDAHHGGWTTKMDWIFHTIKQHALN
Chain of PI3Kα kinase (P27986 whole entry partner): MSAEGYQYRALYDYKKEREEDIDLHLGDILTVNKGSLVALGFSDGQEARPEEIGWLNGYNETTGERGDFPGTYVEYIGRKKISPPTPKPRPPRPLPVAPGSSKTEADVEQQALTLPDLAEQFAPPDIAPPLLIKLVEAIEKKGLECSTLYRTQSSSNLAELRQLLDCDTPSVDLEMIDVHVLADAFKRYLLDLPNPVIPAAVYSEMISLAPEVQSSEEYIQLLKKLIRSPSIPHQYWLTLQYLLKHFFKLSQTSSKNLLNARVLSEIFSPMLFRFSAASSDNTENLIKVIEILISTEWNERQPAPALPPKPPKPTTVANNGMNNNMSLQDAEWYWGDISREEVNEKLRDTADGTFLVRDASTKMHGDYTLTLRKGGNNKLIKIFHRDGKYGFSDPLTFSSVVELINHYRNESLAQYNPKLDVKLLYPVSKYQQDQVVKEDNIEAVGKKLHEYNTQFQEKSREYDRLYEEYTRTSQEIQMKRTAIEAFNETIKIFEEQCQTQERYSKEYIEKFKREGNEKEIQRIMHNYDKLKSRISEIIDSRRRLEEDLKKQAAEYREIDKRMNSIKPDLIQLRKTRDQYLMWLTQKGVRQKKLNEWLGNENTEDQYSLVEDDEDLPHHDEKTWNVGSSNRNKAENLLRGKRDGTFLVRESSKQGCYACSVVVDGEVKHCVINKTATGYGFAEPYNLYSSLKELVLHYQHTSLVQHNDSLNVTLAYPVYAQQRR
Source text for HIF-1α: • U251-HRE: Genetically engineered U251 human glioma cells stably expressing a recombinant vector (pGL2-TK-HRE) in which the Luciferase reporter gene was under the control of hypoxia-responsive element and G418 vector. • U251-pGL3: To exclude compounds that can inhibit luciferase expression in non-specific and/or HIF-1 independent fashion a control cell line genetically engineered U251 human glioma cells stably expressing a recombinant vector (pGL3), U251-pGL3 was used.
U251 HRE and U251 pGL3 cells were grown and maintained in RPMI1640 medium supplemented with 5% FBS. Cells were seeded in 96 well plate at a density of 1.5×10^4 cells in 180 μL per well and incubated at 37° C., 5% CO2 overnight. […] The plates were incubated under two sets of conditions which were as follows.
• (<1% oxygen (O2), 5% CO2 and 94% Nitrogen, incubation temp 37° C.) Condition 2: Normoxia • (21% O2, 5% CO2 and 74% Nitrogen, incubation temp 37° C.)
Plates were incubated for 24 hours, thereafter cell were lysed with Lysis Buffer followed by addition of substrate. Plates were read for luminescence on POLARSTAR™ (or TOPCOUNT™).
To identify the specificity of the compounds of present invention to inhibit HIF-1α under hypoxia conditions, Specificity Index (SI) was calculated as follows:
An observed SI of greater than 4 indicates specificity towards HIF-1α inhibition under hypoxia conditions.

With `NC(=NO)c1ccc(NC(=O)CCl)cn1` [Example 4, 2-Chloro-N-(6-(N′-hydroxycarbamimidoyl)pyridin-3-yl)acetamide], the IC50 at 48 h in “Cytotoxicity assay (MTS)” is 2200 ± 300 nM. Moreover, the “Specificity Index” value with HIF-1α is reported as more than 20. The IC50 worked out at 2000 ± 500 nM in series [1] and 5000 nM on mTOR.
As for `O=C(CCl)Nc1ccc(-c2noc(C(F)(F)F)n2)nc1` [Example 29, 2-Chloro-N-[6-(5-(trifluoromethyl)-1,2,4-oxadiazol-3-yl)pyridin-3-yl]acetamide], the IC50 at 48 h in “Cytotoxicity assay (MTS)” turned out to be 3500 ± 500 nM. The “Specificity Index” value with HIF-1α is more than 9. In addition, the IC50 in series [1] amounted to 1500 ± 400 nM.
The like results for `Cc1nc(-c2ccc(NC(=O)CCl)cn2)no1` [Example 30, 2-Chloro-N-[6-(5-methyl-1,2,4-oxadiazol-3-yl)pyridin-3-yl]acetamide] were, in that order, 3000 ± 500 nM, more than 11 and 1500 ± 200 nM.
Turning to `O=C(CCl)Nc1ccc(-c2noc(C(F)(F)Cl)n2)nc1` [Example 41a, 2-Chloro-N-[6-(5-(chlorodifluoromethyl)-1,2,4-oxadiazol-3-yl)pyridin-3-yl]acetamide], the IC50 at 48 h in the series “Cytotoxicity assay (MTS)” turned out to be 3500 ± 1000 nM. Further, the “Specificity Index” value in the series on HIF-1α is on record as more than 10.
`O=C(CCl)Nc1ccc(-c2nc(O)cc(C(F)(F)F)n2)nc1` [Example 53, 2-Chloro-N-(6-(4-hydroxy-6-(trifluoromethyl)pyrimidin-2-yl)pyridin-3-yl)acetamide]: in the series “Cytotoxicity assay (MTS)”, the IC50 at 48 h was determined as 2000 ± 500 nM. Further, the “Specificity Index” value in the series on HIF-1α is on record as more than 7. Besides, the IC50 in series [1] was found to be 2000 ± 300 nM.
`C=CCOc1cc(C(F)(F)F)nc(-c2ccc(NC(=O)CCl)cn2)n1` [Example 60, N-(6-(4-(allyloxy)-6-(trifluoromethyl)pyrimidin-2-yl)pyridin-3yl-)-2-chloroacetamide]: in “Cytotoxicity assay (MTS)”, the IC50 at 48 h worked out at 2000 ± 200 nM. In addition, in the series on HIF-1α, the “Specificity Index” value is listed as more than 15. Besides, the figures for the IC50 (in series [1]; on mTOR; at PI3Kα kinase) were 800 ± 200 nM, 5000 nM and 1500 nM, respectively.
As to `COc1cc(C(F)(F)F)nc(-c2ccc(NC(=O)CCl)cn2)n1` [Example 61, 2-Chloro-N-(6-(4-methoxy-6-(trifluoromethyl)pyrimidin-2-yl)pyridin-3yl)acetamide], in “Cytotoxicity assay (MTS)”, the IC50 at 48 h turned out to be 3000 ± 200 nM. Further, the IC50 at mTOR was found to be 5000 nM; on PI3Kα kinase, 1000 nM.
As for `C=CCOc1nc(-c2ccc(NC(=O)CCl)cn2)nc(C)c1CC` [Example 64, N-(6-(4-(allyloxy)-5-ethyl-6-methylpyrimidin-2-yl)pyridin-3yl)-2-chloroacetamide], in “Cytotoxicity assay (MTS)”, the IC50 at 48 h was determined as 1500 ± 200 nM. Further, the IC50 in series [1] was 1000 ± 200 nM; on mTOR, 5000 nM; on PI3Kα kinase, less than 1000 nM.
On to `O=C(CCl)Nc1ccc(-c2nc(Cl)cc(C(F)(F)F)n2)nc1` [Example 71, 2-Chloro-N-(6-(4-chloro-6-(trifluoromethyl)pyrimidin-2-yl)pyridin-3-yl)acetamide], for which the IC50 at 48 h in the series “Cytotoxicity assay (MTS)” stood at 1000 ± 200 nM. Moreover, the “Specificity Index” value in the series on HIF-1α was more than 6. Besides, the IC50 in series [1] was determined as 800 ± 200 nM.
